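Assay format: 96-well plates, 48-hour exposure. The concentration for 50% growth inhibition is given as GI50.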 Activity calls are given as the source filed them. Rule as the data show it: active = GI50 up to about 1.1 µM and inactive = higher.
What was measured:
Assay in all cases: NCI tumour cell line growth inhibition, 48 h
OVCAR-5 = test system: OVCAR-5
MDA-N = test system: MDA-N
HOP-62 = test system: HOP-62
SK-MEL-2 = test system: SK-MEL-2
SK-MEL-28 = test system: SK-MEL-28
EKVX = test system: EKVX
COLO 205 = test system: COLO 205
SR = test system: SR
K562 = test system: K562
HCT-116 = test system: HCT-116
SNB-75 = test system: SNB-75
NCI-H460 = test system: NCI-H460
HOP-92 = test system: HOP-92
HL-60 = test system: HL-60
HT-29 = test system: HT-29
HCT-15 = test system: HCT-15
SF-295 = test system: SF-295
KM12 = test system: KM12
CAKI-1 = test system: CAKI-1
U-251 = test system: U-251

SMILES	GI50 (OVCAR-5)	GI50 (MDA-N)	GI50 (HOP-62)	GI50 (SK-MEL-2)	GI50 (SK-MEL-28)	GI50 (EKVX)	GI50 (COLO 205)	GI50 (SR)	GI50 (K562)	GI50 (HCT-116)	GI50 (SNB-75)	GI50 (NCI-H460)	GI50 (HOP-92)	GI50 (HL-60)	GI50 (HT-29)	GI50 (HCT-15) [µM]	GI50 (SF-295)	GI50 (KM12)	GI50 (CAKI-1)	GI50 (U-251)
NS(=O)(=O)c1ccc(/N=N/c2ncccc2O)cc1	> 100 µM (inactive)	> 100 µM (inactive)	> 100 µM (inactive)	> 100 µM (inactive)	> 100 µM (inactive)	> 100 µM (inactive)	> 100 µM (inactive)	23.1 µM (inactive)	40.2 µM (inactive)	39.3 µM (inactive)	> 100 µM (inactive)	69.3 µM (inactive)	> 100 µM (inactive)	41.1 µM (inactive)	> 100 µM (inactive)	> 100	> 100 µM (inactive)	60.5 µM (inactive)	> 100 µM (inactive)	> 100 µM (inactive)
COc1c(C=O)c2c(c(OC)c1OC)-c1ccc(OC)c(=O)cc1[C@@H](NC(C)=O)CC2	3.78 µM (inactive)	< 0.01 µM (active)	0.36 µM (active)	0.0313 µM (active)	4.08 µM (inactive)	47.9 µM (inactive)	0.0239 µM (active)	< 0.01 µM (active)	< 0.0126 µM (active)	0.0174 µM (active)	0.0254 µM (active)	0.0771 µM (active)	0.0288 µM (active)	< 0.01 µM (active)	0.0255 µM (active)	0.849	0.185 µM (active)	0.0134 µM (active)	0.703 µM (active)	0.0367 µM (active)
CC1C(=O)C(C)C(c2ccccc2)N(N=O)C1c1ccccc1 (stereo not given)	> 527 µM (inactive)	134 µM (inactive)	41.8 µM (inactive)	224 µM (inactive)	> 409 µM (inactive)	> 100 µM (inactive)	> 553 µM (inactive)	> 439 µM (inactive)	> 883 µM (inactive)	127 µM (inactive)	34 µM (inactive)	> 592 µM (inactive)	24.9 µM (inactive)	> 724 µM (inactive)	> 570 µM (inactive)	> 100	48.8 µM (inactive)	> 439 µM (inactive)	184 µM (inactive)	60.1 µM (inactive)
O=C1N[C@@H](c2c[nH]c3ccc(Br)cc23)C(=O)N[C@H]1c1c[nH]c2ccc(Br)cc12	13.9 µM (inactive)	8.17 µM (inactive)	12 µM (inactive)	13.6 µM (inactive)	15.1 µM (inactive)	13 µM (inactive)	7.21 µM (inactive)	4.72 µM (inactive)	4.47 µM (inactive)	7.93 µM (inactive)	1.55 µM (inactive)	5.73 µM (inactive)	3.71 µM (inactive)	6.9 µM (inactive)	7.5 µM (inactive)	14.9	11.9 µM (inactive)	5.06 µM (inactive)	12.8 µM (inactive)	9.35 µM (inactive)
CCCCCCCC/C=C\CCCCCCC/C=C1\C[C@](/C=C/C(=O)OC)(CO)OC1=O	5.98 µM (inactive)	0.834 µM (active)	1.86 µM (inactive)	8.41 µM (inactive)	1.6 µM (inactive)	10.4 µM (inactive)	2.02 µM (inactive)	2.74 µM (inactive)	0.662 µM (active)	2.16 µM (inactive)	1.92 µM (inactive)	3.44 µM (inactive)	2.94 µM (inactive)	2.15 µM (inactive)	5.08 µM (inactive)	2.75	2.23 µM (inactive)	3.37 µM (inactive)	1.29 µM (inactive)	1.85 µM (inactive)
NC(=O)c1ccc(NCC2=CC(=O)C=CC2=O)cc1	23 µM (inactive)	17.3 µM (inactive)	> 100 µM (inactive)	20.4 µM (inactive)	20.5 µM (inactive)	16.9 µM (inactive)	19.1 µM (inactive)	24.9 µM (inactive)	21.8 µM (inactive)	18.7 µM (inactive)	21 µM (inactive)	> 100 µM (inactive)	16.5 µM (inactive)	11.5 µM (inactive)	22.1 µM (inactive)	19.2	> 100 µM (inactive)	> 100 µM (inactive)	19.1 µM (inactive)	22 µM (inactive)
C=C1C(=O)OC2/C=C(\C)C(=O)CC3OC(C)(C)OC3(C)CC(OC(=O)/C(C)=C/C)C12 (stereo not given)	20.4 µM (inactive)	13.2 µM (inactive)	58.1 µM (inactive)	28.1 µM (inactive)	11.9 µM (inactive)	14.2 µM (inactive)	6.35 µM (inactive)	3.05 µM (inactive)	4.05 µM (inactive)	7.43 µM (inactive)	> 42.9 µM (inactive)	17.1 µM (inactive)	13.6 µM (inactive)	3.26 µM (inactive)	7.89 µM (inactive)	4.49	42 µM (inactive)	17.9 µM (inactive)	3.51 µM (inactive)	27.5 µM (inactive)
O=S(=O)(c1ccccc1)n1c2cc3cccnc3nc2c2cccnc21	> 100 µM (inactive)	38.2 µM (inactive)	60 µM (inactive)	> 100 µM (inactive)	> 100 µM (inactive)	> 100 µM (inactive)	72.9 µM (inactive)	10.9 µM (inactive)	17.3 µM (inactive)	82.2 µM (inactive)	28.4 µM (inactive)	36.9 µM (inactive)	21.1 µM (inactive)	17.9 µM (inactive)	60.4 µM (inactive)	71.3	49.8 µM (inactive)	> 100 µM (inactive)	> 100 µM (inactive)	40.5 µM (inactive)
CCc1cccc(C(C)C)c1NC1=C([n+]2ccc(C)cc2)C(=O)c2ccccc2C1=O.[O-][Cl+3]([O-])([O-])[O-]	5.3 µM (inactive)	1.65 µM (inactive)	0.804 µM (active)	3.87 µM (inactive)	7.64 µM (inactive)	0.817 µM (active)	1.1 µM (active)	0.0525 µM (active)	1.91 µM (inactive)	3.21 µM (inactive)	1.75 µM (inactive)	0.564 µM (active)	0.451 µM (active)	1.18 µM (inactive)	1.82 µM (inactive)	3.62	1.87 µM (inactive)	2.77 µM (inactive)	1.13 µM (inactive)	0.887 µM (active)
C=CC(C)(C)n1cc(C2=C(O)C(=O)C(c3c(CC=C(C)C)[nH]c4ccccc34)=C(O)C2=O)c2ccccc21	2.89 µM (inactive)	0.718 µM (active)	1.25 µM (inactive)	1.59 µM (inactive)	0.575 µM (active)	1.91 µM (inactive)	1.71 µM (inactive)	0.745 µM (active)	0.476 µM (active)	1.94 µM (inactive)	0.796 µM (active)	1.52 µM (inactive)	1.46 µM (inactive)	1.86 µM (inactive)	2.28 µM (inactive)	1.62	1.58 µM (inactive)	0.979 µM (active)	2.39 µM (inactive)	1.1 µM (active)
COC(=O)NC(Cc1ccccc1)NC(=O)OC(C)(C)C (stereo not given)	> 100 µM (inactive)	> 100 µM (inactive)	> 100 µM (inactive)	> 100 µM (inactive)	> 100 µM (inactive)	> 100 µM (inactive)	> 100 µM (inactive)	> 100 µM (inactive)	> 100 µM (inactive)	> 100 µM (inactive)	> 100 µM (inactive)	> 100 µM (inactive)	> 100 µM (inactive)	> 100 µM (inactive)	> 100 µM (inactive)	> 100	> 100 µM (inactive)	> 100 µM (inactive)	> 100 µM (inactive)	> 100 µM (inactive)
C=C(C)C(O)C(O)c1c(OC)ccc2ccc(=O)oc12 (stereo not given)	> 100 µM (inactive)	> 100 µM (inactive)	> 100 µM (inactive)	> 100 µM (inactive)	> 100 µM (inactive)	> 100 µM (inactive)	> 100 µM (inactive)	> 100 µM (inactive)	> 100 µM (inactive)	> 100 µM (inactive)	> 100 µM (inactive)	> 100 µM (inactive)	> 100 µM (inactive)	> 100 µM (inactive)	> 100 µM (inactive)	> 100	> 100 µM (inactive)	> 100 µM (inactive)	> 100 µM (inactive)	> 100 µM (inactive)
CC(CN(C)C)C(O)(c1ccccc1)c1ccccc1 (stereo not given)	> 100 µM (inactive)	> 100 µM (inactive)	> 100 µM (inactive)	> 100 µM (inactive)	> 100 µM (inactive)	> 100 µM (inactive)	> 100 µM (inactive)	> 100 µM (inactive)	> 100 µM (inactive)	> 100 µM (inactive)	> 100 µM (inactive)	> 100 µM (inactive)	> 100 µM (inactive)	> 100 µM (inactive)	> 100 µM (inactive)	> 100	> 100 µM (inactive)	> 100 µM (inactive)	> 100 µM (inactive)	> 100 µM (inactive)
N#CC(C#N)=C(N)/C(C#N)=C/c1ccc(O)c(O)c1	> 58.3 µM (inactive)	> 100 µM (inactive)	15.5 µM (inactive)	> 100 µM (inactive)	> 100 µM (inactive)	> 70.3 µM (inactive)	> 65.2 µM (inactive)	29.3 µM (inactive)	48.8 µM (inactive)	54 µM (inactive)	74.8 µM (inactive)	50.5 µM (inactive)	43.6 µM (inactive)	22.6 µM (inactive)	> 92.9 µM (inactive)	44.5	> 20.4 µM (inactive)	69.5 µM (inactive)	> 100 µM (inactive)	> 89.5 µM (inactive)
